Data reported in patent US7381521B2, “Anti-pathogenic composition useful in blood preservation” (Altachem Pharma Ltd., priority 2001, dated 2008).

Tests used:
S. aureus ATCC 6538 = assay: Test 2 (DGHM), growth inhibition by dilutions, 72 hours at 37° C.; type: cell-based, Staphylococcus aureus
Procedure: (§1) Another test was carried out a basis of the following solutions • 100 ml of a 0.1% solution of chlorohexidine digluconate (pH 6); and • 100 ml of a 0.1% solution of Bardac22®.
(§2) The activity of these solutions, alone or in combination, was more particularly tested in respect of Staphylococcus aureus ATCC 6538, Escherichia coli ATCC 11229 and Candida albicans ATCC 10231.
(§3) The tests were conducted in accordance with the procedure described in Chapter I/2.1 and 2.2 of Tichtlinien für die Prüfung und Bewertung chemischer Desinfektionsverfahren der DGHM/Guidelines for Testing and Evaluating Chemical Disinfection Processes of DGHM as at 1.1, 1981.
(§4) Tables IX, X and XI respectively illustrate the bactericidal and fungicidal activity of a 0.1% aqueous solution of chlorohexidine digluconate, a 0.1% aqueous solution of Bardac22® and a mixture of equal parts of both compounds. The procedures of which these Tables illustrate the results comprise incubation of 72 hours at 37° C. and the use of the following inactivating substances as controls: • A: 3% Tween®80+0.3% lecithin+0.1% cysteine • B: 3% Tween®80+3% saponin+0.1% cysteine+0.1% histidine; • C: 3% Tween®80+0.3% lecithin+0.1% histidine+0.5% sodium thiosulphate.
(§5) In these Tables, the sign “+” indicates an increase and the sign “−” denotes the absence of growth.

E. coli ATCC 11229 = assay: as above; type: cell-based, Escherichia coli
Procedure: as §1, §2, §3, §4, §5

spermatozoids = assay: Spermicidal action, vitality by eosine-nigrosine, 100 spermatozoids examined; type: cell-based, human (healthy volunteers); set-up: key: living (colourless) cells counted among 100 spermatozoids examined; conditions: Chlorohexidine digluconate solution 0.5%
Procedure: The various samples of sperm (one drop of sperm per sample) are obtained from healthy volunteers.
One drop of sperm is treated by eosine-nigrosine. A smear is then prepared and 100 spermatozoids examined with a microscope. The dead cells are coloured red, either totally or partially. The living cells are colourless.
The substances studied were Bardac® and chlorohexidine digluconate, tested alone and in association in accordance with the invention. The various stages of the procedure are set out in Tables XV to XVII.
The maximum contact time of the various substances and of the sperm was confined to 3 minutes in order to guarantee the effectiveness of the method under the conditions of use. The concentration of the active solutions in the sperm was limited to 10% in order to reduce the risks of toxicity of the products in respect of the mucosa.

[1] = system: erythrocytes in heparinized bovine blood; assay: In-vitro hemolysis of erythrocytes in heparinized whole blood, absorbance at 413 nm; conditions: 1 hour at 37° C.
Procedure: The effect of the compounds on the in-vitro hemolysis of erythrocytes in heparinized whole blood is monitored by a spectrophotometric method.
Various formulations and concentrations of the test compound are added to heparinized bovine blood and mixed gently in a 1.5 ml microcentrifuge tube. The sample is allowed to incubate for 1 hour at 37° C. At the end of incubation, the samples are removed from the incubator and centrifuged at 2000 rpm for 5 minutes. A 200 μl aliquot of the supernatant is removed from each sample into a 96 well microtiter plate and read at 413 nm. The absorbance of the test sample is compared to the control sample containing phosphate buffered saline, pH 7.2.

[2] = 0.00625% vol/vol, inactivator A
[3] = 0.00625% vol/vol, inactivator B
[4] = 0.00625% vol/vol, inactivator C
[5] = 0.00625% vol/vol, no inactivator
[6] = 0.0125% vol/vol, no inactivator

[H]/N=C(\N/C(=N/[H])NCCCCCCNC(=N)NC(=N)Nc1ccc(Cl)cc1)Nc1ccc(Cl)cc1 [Chlorhexidine, chlorohexidine digluconate, reference compound]
0.0005%: concentration of active substance inhibiting growth (S. aureus ATCC 6538) | concentration of active substance inhibiting growth (E. coli ATCC 11229)
78 ± 5.7: vitality (living spermatozoids) (spermatozoids; contact 3 min, 5% in the sperm)
+: growth (S. aureus ATCC 6538; [2]) | growth (S. aureus ATCC 6538; [3]) | growth (S. aureus ATCC 6538; [4]) | growth (S. aureus ATCC 6538; [5]) | growth (S. aureus ATCC 6538; 0.0125% vol/vol, inactivator A) | growth (S. aureus ATCC 6538; 0.0125% vol/vol, inactivator B) | growth (S. aureus ATCC 6538; 0.0125% vol/vol, inactivator C) | growth (S. aureus ATCC 6538; [6]) | growth (S. aureus ATCC 6538; 0.025% vol/vol, inactivator A) | growth (S. aureus ATCC 6538; 0.025% vol/vol, inactivator B) | growth (S. aureus ATCC 6538; 0.025% vol/vol, inactivator C) | growth (S. aureus ATCC 6538; 0.025% vol/vol, no inactivator) | growth (S. aureus ATCC 6538; 0.05% vol/vol, inactivator A) | growth (S. aureus ATCC 6538; 0.05% vol/vol, inactivator B) | growth (S. aureus ATCC 6538; 0.05% vol/vol, inactivator C) | growth (S. aureus ATCC 6538; 0.05% vol/vol, no inactivator) | growth (S. aureus ATCC 6538; 0.1% vol/vol, inactivator A) | growth (S. aureus ATCC 6538; 0.1% vol/vol, inactivator B) | growth (S. aureus ATCC 6538; 0.1% vol/vol, inactivator C) | growth (S. aureus ATCC 6538; 0.1% vol/vol, no inactivator) | growth (S. aureus ATCC 6538; 0.5% vol/vol, inactivator A) | growth (S. aureus ATCC 6538; 0.5% vol/vol, inactivator B) | growth (S. aureus ATCC 6538; 0.5% vol/vol, inactivator C) | growth (S. aureus ATCC 6538; 1.0% vol/vol, inactivator A) | growth (S. aureus ATCC 6538; 1.0% vol/vol, inactivator B) | growth (S. aureus ATCC 6538; 1.0% vol/vol, inactivator C) | growth (E. coli ATCC 11229; [2]) | growth (E. coli ATCC 11229; [3]) | growth (E. coli ATCC 11229; [4]) | growth (E. coli ATCC 11229; [5]) | growth (E. coli ATCC 11229; 0.0125% vol/vol, inactivator A) | growth (E. coli ATCC 11229; 0.0125% vol/vol, inactivator B) | growth (E. coli ATCC 11229; 0.0125% vol/vol, inactivator C) | growth (E. coli ATCC 11229; [6]) | growth (E. coli ATCC 11229; 0.025% vol/vol, inactivator A) | growth (E. coli ATCC 11229; 0.025% vol/vol, inactivator B) | growth (E. coli ATCC 11229; 0.025% vol/vol, inactivator C) | growth (E. coli ATCC 11229; 0.025% vol/vol, no inactivator) | growth (E. coli ATCC 11229; 0.05% vol/vol, inactivator A) | growth (E. coli ATCC 11229; 0.05% vol/vol, inactivator B) | growth (E. coli ATCC 11229; 0.05% vol/vol, inactivator C) | growth (E. coli ATCC 11229; 0.05% vol/vol, no inactivator) | growth (E. coli ATCC 11229; 0.1% vol/vol, inactivator A) | growth (E. coli ATCC 11229; 0.1% vol/vol, inactivator B) | growth (E. coli ATCC 11229; 0.1% vol/vol, inactivator C) | growth (E. coli ATCC 11229; 0.1% vol/vol, no inactivator) | growth (E. coli ATCC 11229; 0.5% vol/vol, inactivator A) | growth (E. coli ATCC 11229; 0.5% vol/vol, inactivator B) | growth (E. coli ATCC 11229; 0.5% vol/vol, inactivator C) | growth (E. coli ATCC 11229; 1.0% vol/vol, inactivator A) | growth (E. coli ATCC 11229; 1.0% vol/vol, inactivator B) | growth (E. coli ATCC 11229; 1.0% vol/vol, inactivator C)
0.5%: dilution of the 0.1% solution inhibiting growth (S. aureus ATCC 6538) | dilution of the 0.1% solution inhibiting growth (E. coli ATCC 11229)
77.2 ± 5.6: vitality (living spermatozoids) (spermatozoids; contact 1 min, 10% in the sperm)
−: growth (S. aureus ATCC 6538; 0.5% vol/vol, no inactivator) | growth (S. aureus ATCC 6538; 1.0% vol/vol, no inactivator) | growth (E. coli ATCC 11229; 0.5% vol/vol, no inactivator) | growth (E. coli ATCC 11229; 1.0% vol/vol, no inactivator)
77 ± 10.8: vitality (living spermatozoids) (spermatozoids; contact 1 min, 5% in the sperm)
0.001%: Concentration at which hemolysis is not observed ([1]; component of test compound Bardac 22 + Chlorohexidine Gluconate + Tergitol NP-9)
0.0125%: Concentration at which hemolysis is not observed ([1]; component of test compound Bardac 22 + Chlorohexidine Gluconate)
75.5 ± 4.8: vitality (living spermatozoids) (spermatozoids; contact 3 min, 10% in the sperm)
